The term IC50 denotes the point on the concentration scale where inhibition reaches its midpoint.

Consider 18 molecules from patent publication US12202835B2, “Substituted aromatic ring-linked dioxinoquinazolines and dioxinoquinolines as kinase inhibitors” (BEIJING SCITECH-MQ PHARMACEUTICALS LIMITED, priority 2018, dated 2025).

One experiment deals with TRKA kinase (Homo sapiens (Human), UniProt P04629). Kind of experiment: Assay of small molecular compounds for inhibiting the activity of TRKA kinase (LANCE TR-FRET). It counts as biochemical. The method in brief: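 LANCE TR-FRET with ULight-TK peptide; compounds pre-incubated 5 min with TRKA (2× solution 2 nM), then substrate/ATP added (4× mix: 400 nM peptide, 40 μM ATP). Reaction 60 min at room temperature in dark, 1% DMSO final; stopped, detection developed 60 min, signal read.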
Chain of TRKA kinase (P04629 33-796): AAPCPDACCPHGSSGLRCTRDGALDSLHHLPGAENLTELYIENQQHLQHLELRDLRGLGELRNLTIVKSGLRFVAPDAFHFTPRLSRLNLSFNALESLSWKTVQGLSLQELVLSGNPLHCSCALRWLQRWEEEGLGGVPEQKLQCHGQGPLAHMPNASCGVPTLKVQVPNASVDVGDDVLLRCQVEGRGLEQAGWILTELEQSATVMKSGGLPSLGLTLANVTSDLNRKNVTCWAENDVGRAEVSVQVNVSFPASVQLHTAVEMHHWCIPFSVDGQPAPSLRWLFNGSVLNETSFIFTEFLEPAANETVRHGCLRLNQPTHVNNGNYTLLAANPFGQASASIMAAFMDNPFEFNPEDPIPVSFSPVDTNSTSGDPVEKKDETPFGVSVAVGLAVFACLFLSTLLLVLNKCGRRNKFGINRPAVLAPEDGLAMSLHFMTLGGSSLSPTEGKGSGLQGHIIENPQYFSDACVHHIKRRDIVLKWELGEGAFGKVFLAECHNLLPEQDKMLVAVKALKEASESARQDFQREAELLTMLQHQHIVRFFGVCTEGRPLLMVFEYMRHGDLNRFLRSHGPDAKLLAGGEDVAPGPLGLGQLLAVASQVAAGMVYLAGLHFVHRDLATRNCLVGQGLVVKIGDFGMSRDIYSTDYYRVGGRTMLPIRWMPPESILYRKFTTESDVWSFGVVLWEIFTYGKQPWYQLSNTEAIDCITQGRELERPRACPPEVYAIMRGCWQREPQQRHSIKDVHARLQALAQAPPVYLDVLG
In general terms: TR-FRET usually uses a lanthanide donor and a delayed reading to cut background.

In another experiment the test system is Ba/F3 LMNA-NTRK1 cells. Description: Assay for inhibiting the proliferation of Ba/F3 LMNA-NTRK1 cells (CCK-8). The note with it: Mus musculus, BaF3. It counts as cell-based. In a few lines: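 Cells were seeded and cultured overnight, then treated with graded compound concentrations (final DMSO 0.25%) for 72 h. CCK-8 was added for 1–2 h at 37 °C and OD450 read. Survival was normalised to untreated and cell-free blank wells, and IC50 was fitted.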

For another experiment, the target named is VEGFR-2 kinase (Homo sapiens (Human), UniProt P35968). Description: Assay of small molecular compounds for inhibiting the activity of VEGFR-2 kinase (LANCE TR-FRET). The note with it: read-out: VEGFR2 IC50. Format: biochemical. The method in brief: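 LANCE TR-FRET with human VEGFR-2 (2× stock 0.5 nM) preincubated 30 min with compound (final 2500 to 0.042 nM, 11-point 3-fold), then ULight-JAK-1 (Tyr1023) peptide/ATP added (4× stocks 200 nM/40 μM). Reaction 60 min room temperature, 4% DMSO; IC50 from inhibition-rate curve.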
Chain of VEGFR-2 kinase (P35968 20-1356): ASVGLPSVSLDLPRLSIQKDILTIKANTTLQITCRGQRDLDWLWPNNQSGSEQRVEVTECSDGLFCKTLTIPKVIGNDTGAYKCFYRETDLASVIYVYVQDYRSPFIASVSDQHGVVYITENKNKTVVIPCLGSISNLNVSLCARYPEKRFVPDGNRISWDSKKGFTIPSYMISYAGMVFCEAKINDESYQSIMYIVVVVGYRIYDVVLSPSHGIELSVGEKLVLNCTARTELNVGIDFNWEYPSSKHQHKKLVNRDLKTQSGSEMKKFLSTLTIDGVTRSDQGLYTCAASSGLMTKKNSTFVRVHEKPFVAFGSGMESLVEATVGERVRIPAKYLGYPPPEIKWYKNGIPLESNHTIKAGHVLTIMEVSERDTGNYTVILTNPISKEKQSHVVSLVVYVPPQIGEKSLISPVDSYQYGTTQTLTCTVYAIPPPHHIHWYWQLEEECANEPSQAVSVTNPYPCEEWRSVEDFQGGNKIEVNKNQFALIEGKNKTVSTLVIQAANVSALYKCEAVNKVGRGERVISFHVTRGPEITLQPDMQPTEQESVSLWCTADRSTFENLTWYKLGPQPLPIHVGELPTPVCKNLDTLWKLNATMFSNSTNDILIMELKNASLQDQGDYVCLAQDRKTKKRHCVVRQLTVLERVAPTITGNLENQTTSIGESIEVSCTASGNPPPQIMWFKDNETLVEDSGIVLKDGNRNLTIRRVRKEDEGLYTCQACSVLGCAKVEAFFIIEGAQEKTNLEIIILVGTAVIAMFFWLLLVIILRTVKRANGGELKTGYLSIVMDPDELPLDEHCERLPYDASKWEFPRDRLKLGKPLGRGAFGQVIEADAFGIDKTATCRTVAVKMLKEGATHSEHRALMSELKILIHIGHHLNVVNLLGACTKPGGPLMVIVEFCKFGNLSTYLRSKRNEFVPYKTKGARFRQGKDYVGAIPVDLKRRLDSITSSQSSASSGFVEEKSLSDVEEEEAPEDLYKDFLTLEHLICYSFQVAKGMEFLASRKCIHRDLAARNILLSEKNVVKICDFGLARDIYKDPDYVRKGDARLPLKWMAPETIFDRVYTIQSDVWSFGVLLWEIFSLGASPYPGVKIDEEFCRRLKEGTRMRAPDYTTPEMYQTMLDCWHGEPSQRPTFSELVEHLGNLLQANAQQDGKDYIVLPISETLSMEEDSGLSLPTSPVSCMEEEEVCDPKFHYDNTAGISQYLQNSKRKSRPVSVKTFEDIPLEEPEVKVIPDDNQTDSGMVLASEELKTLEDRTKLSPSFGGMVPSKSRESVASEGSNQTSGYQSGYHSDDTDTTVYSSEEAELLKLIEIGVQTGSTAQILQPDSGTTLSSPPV

Bounds are passed on as bounds.

On to `CCOc1ccn(-c2ccc(Cl)cc2)c(=O)c1C(=O)Nc1ccc(Oc2ccnc3cc(OC)c4c(c23)OCCO4)c(F)c1` [Example 113, N-(3-fluoro-4-((5-methoxy-2,3-dihydro-[1,4]dioxino[2,3-f]quinolin-10-yl)oxy)phenyl)-2-oxo-4-ethoxy-1-(4-chlorophenyl)-1,2-dihydropyridin-3-carboxamide], for which the IC50 is below 50 nM against TRKA kinase, below 50 nM with Ba/F3 LMNA-NTRK1 cells and 50 to 500 nM on VEGFR-2 kinase.
For the molecule `CCOc1ccn(-c2ccc(F)cc2)c(=O)c1C(=O)Nc1cc(F)c(Oc2ccnc3cc(OC)c4c(c23)OCCO4)cc1Cl` [Example 115, N-(2-chloro-5-fluoro-4-((5-methoxy-2,3-dihydro-[1,4]dioxino[2,3-f]quinolin-10-yl)oxy)phenyl)-4-ethoxy-2-oxo-1-(4-fluorophenyl)-1,2-dihydropyridin-3-carboxamide], the IC50 against TRKA kinase is below 50 nM; with Ba/F3 LMNA-NTRK1 cells, below 50 nM; at VEGFR-2 kinase, 500 to 5000 nM.
Take `COc1cc2nccc(Oc3cc(Cl)c(NC(=O)c4cn(C)c(=O)n(-c5ccc(F)cc5)c4=O)cc3F)c2c2c1OCCO2` [Example 116, N-(2-chloro-5-fluoro-4-((5-methoxy-2,3-dihydro-[1,4]dioxino[2,3-f]quinolin-10-yl)oxy)phenyl)-3-(4-fluorophenyl)-1-methyl-2,4-dioxo-1,2,3,4-tetrahydropyrimidine-5-carboxamide]: the IC50 was below 50 nM at TRKA kinase, below 50 nM with Ba/F3 LMNA-NTRK1 cells and above 5000 nM at VEGFR-2 kinase.
For the molecule `CCOc1ccn(-c2ccc(F)cc2)c(=O)c1C(=O)Nc1ccc(Oc2ccnc3cc(OCC(C)(C)O)c4c(c23)OCCO4)c(F)c1` [Example 120, N-(3-fluoro-4-((5-(2-hydroxy-2-methylpropoxy)-2,3-dihydro-[1,4]dioxino[2,3-f]quinolin-10-yl)oxy)phenyl)-4-ethoxy-1-(4-fluorophenyl)-2-oxo-1,2-dihydropyridine-3-carboxamide], the values for the IC50 at TRKA kinase, with Ba/F3 LMNA-NTRK1 cells and at VEGFR-2 kinase were below 50 nM, below 50 nM and 50 to 500 nM, respectively.
Turning to `CC(C)n1cc(C(=O)Nc2ccc(Oc3ccnc4cc(OCC(C)(C)O)c5c(c34)OCCO5)c(F)c2)c(=O)n(-c2ccc(F)cc2)c1=O` [Example 122, N-(3-fluoro-4-((5-(2-hydroxy-2-methylpropoxy)-2,3-dihydro-[1,4]dioxino[2,3-f]quinolin-10-yl)oxy)phenyl)-3-(4-fluorophenyl)-1-isopropyl-2,4-dioxo-1,2,3,4-tetrahydropyrimidine-5-carboxamide], the IC50 is below 50 nM against TRKA kinase, below 50 nM in the experiment with Ba/F3 LMNA-NTRK1 cells and 500 to 5000 nM on VEGFR-2 kinase.
As for `CCOc1ccn(-c2ccc(F)cc2)c(=O)c1C(=O)Nc1ccc(Oc2ccnc3cc(OC)c4c(c23)OCCO4)cc1Cl` [Example 126, N-(2-chloro-4-((5-methoxy-2,3-dihydro-[1,4]dioxino[2,3-f]quinolin-10-yl)oxy)phenyl)-1-(4-fluorophenyl)-4-ethoxy-2-oxo-1,2-dihydropyridine-3-carboxamide], the IC50 is below 50 nM at TRKA kinase, below 50 nM with Ba/F3 LMNA-NTRK1 cells and 50 to 500 nM on VEGFR-2 kinase.
Take `CCOc1cc2nccc(Oc3ccc(NC(=O)c4cccn(-c5ccc(F)cc5)c4=O)c(Cl)c3)c2c2c1OCCO2` [Example 127, N-(2-chloro-4-((5-ethoxy-2,3-dihydro-[1,4]dioxino[2,3-f]quinolin-10-yl)oxy)phenyl)-1-(4-fluorophenyl)-2-oxo-1,2-dihydropyridine-3-carboxamide]: the IC50 at TRKA kinase was below 50 nM; in the experiment with Ba/F3 LMNA-NTRK1 cells, below 50 nM; at VEGFR-2 kinase, 500 to 5000 nM.
With `CCOc1cc2nccc(Oc3ccc(NC(=O)c4c(OC)ccn(-c5ccc(F)cc5)c4=O)c(Cl)c3)c2c2c1OCCO2` [Example 128, N-(2-chloro-4-((5-ethoxy-2,3-dihydro-[1,4]dioxino[2,3-f]quinolin-10-yl)oxy)phenyl)-1-(4-fluorophenyl)-4-methoxy-2-oxo-1,2-dihydropyridine-3-carboxamide], the half-maximal inhibitory concentration (IC50) against TRKA kinase is below 50 nM; in the experiment with Ba/F3 LMNA-NTRK1 cells, below 50 nM; on VEGFR-2 kinase, 500 to 5000 nM.
As for `CCOc1cc2nccc(Oc3ccc(NC(=O)c4cn(C)c(=O)n(-c5ccc(F)cc5)c4=O)c(Cl)c3)c2c2c1OCCO2` [Example 129, N-(2-chloro-4-((5-ethoxy-2,3-dihydro-[1,4]dioxino[2,3-f]quinolin-10-yl)oxy)phenyl)-3-(4-fluorophenyl)-1-methyl-2,4-dioxo-1,2,3,4-tetrahydropyrimidine-5-carboxamide], the IC50 was below 50 nM on TRKA kinase, below 50 nM in the experiment on Ba/F3 LMNA-NTRK1 cells and 500 to 5000 nM on VEGFR-2 kinase.
For `CCOc1cc2nccc(Oc3ccc(NC(=O)c4c(OCC)ccn(-c5ccc(F)cc5)c4=O)c(Cl)c3)c2c2c1OCCO2` [Example 130, N-(2-chloro-4-((5-ethoxy-2,3-dihydro-[1,4]dioxino[2,3-f]quinolin-10-yl)oxy)phenyl)-1-(4-fluorophenyl)-4-ethoxy-2-oxo-1,2-dihydropyridine-3-carboxamide], the IC50 against TRKA kinase is below 50 nM; in the experiment on Ba/F3 LMNA-NTRK1 cells, below 50 nM; on VEGFR-2 kinase, 50 to 500 nM.
Turning to `COc1ccn(-c2ccc(F)cc2)c(=O)c1C(=O)Nc1ccc(Oc2ccnc3cc(OCCCC#N)c4c(c23)OCCO4)cc1Cl` [Example 132, N-(2-chloro-4-((5-(3-cyanopropoxy)-2,3-dihydro-[1,4]dioxino[2,3-f]quinolin-10-yl)oxy)phenyl)-1-(4-fluorophenyl)-4-methoxy-2-oxo-1,2-dihydropyridine-3-carboxamide], the values for the half-inhibitory concentration (IC50) on TRKA kinase, in the experiment with Ba/F3 LMNA-NTRK1 cells and at VEGFR-2 kinase were below 50 nM, below 50 nM and 500 to 5000 nM, respectively.
`CCOc1ccn(-c2ccc(F)cc2)c(=O)c1C(=O)Nc1ccc(Oc2ccnc3cc(OCCCC#N)c4c(c23)OCCO4)cc1Cl` [Example 134, N-(2-chloro-4-((5-(3-cyanopropoxy)-2,3-dihydro-[1,4]dioxino[2,3-f]quinolin-10-yl)oxy)phenyl)-1-(4-fluorophenyl)-4-ethoxy-2-oxo-1,2-dihydropyridine-3-carboxamide]: the IC50 against TRKA kinase is below 50 nM; in the experiment on Ba/F3 LMNA-NTRK1 cells it was below 50 nM; at VEGFR-2 kinase, 50 to 500 nM.
As to `O=C(Nc1ccc(Oc2ccnc3cc(OCCCN4CCCCC4)c4c(c23)OCCO4)cc1Cl)c1cccn(-c2ccc(F)cc2)c1=O` [Example 135, N-(2-chloro-4-((5-((3-piperidin-1-yl)propoxy)-2,3-dihydro-[1,4]dioxino[2,3-f]quinolin-10-yl)oxy)phenyl)-1-(4-fluorophenyl)-2-oxo-1,2-dihydropyridine-3-carboxamide], the IC50 at TRKA kinase is below 50 nM; with Ba/F3 LMNA-NTRK1 cells it was below 50 nM; on VEGFR-2 kinase, at most 50 nM.
On to `COc1ccn(-c2ccc(F)cc2)c(=O)c1C(=O)Nc1ccc(Oc2ccnc3cc(OCCCN4CCCCC4)c4c(c23)OCCO4)cc1Cl` [Example 136, N-(2-chloro-4-((5-((3-piperidin-1-yl)propoxy)-2,3-dihydro-[1,4]dioxino[2,3-f]quinolin-10-yl)oxy)phenyl)-1-(4-fluorophenyl)-4-methoxy-2-oxo-1,2-dihydropyridine-3-carboxamide], for which the IC50 was below 50 nM at TRKA kinase, below 50 nM in the experiment on Ba/F3 LMNA-NTRK1 cells and 50 to 500 nM on VEGFR-2 kinase.
On to `Cn1cc(C(=O)Nc2ccc(Oc3ccnc4cc(OCCCN5CCCCC5)c5c(c34)OCCO5)cc2Cl)c(=O)n(-c2ccc(F)cc2)c1=O` [Example 137, N-(2-chloro-4-((5-((3-piperidin-1-yl)propoxy)-2,3-dihydro-[1,4]dioxino[2,3-f]quinolin-10-yl)oxy)phenyl)-3-(4-fluorophenyl)-1-methyl-2,4-dioxo-1,2,3,4-tetrahydropyrimidine-5-carboxamide], for which the IC50 on TRKA kinase was below 50 nM; in the experiment with Ba/F3 LMNA-NTRK1 cells, below 50 nM; on VEGFR-2 kinase it was 50 to 500 nM.
As for `CCOc1ccn(-c2ccc(F)cc2)c(=O)c1C(=O)Nc1ccc(Oc2ccnc3cc(OCCCN4CCCCC4)c4c(c23)OCCO4)cc1Cl` [Example 138, N-(2-chloro-4-((5-((3-piperidin-1-yl)propoxy)-2,3-dihydro-[1,4]dioxino[2,3-f]quinolin-10-yl)oxy)phenyl)-1-(4-fluorophenyl)-4-ethoxy-2-oxo-1,2-dihydropyridine-3-carboxamide], the IC50 at TRKA kinase is below 50 nM; in the experiment with Ba/F3 LMNA-NTRK1 cells, below 50 nM; at VEGFR-2 kinase, at most 50 nM.
As to `CC(C)(O)COc1cc2nccc(Oc3ccc(NC(=O)c4cccn(-c5ccc(F)cc5)c4=O)c(Cl)c3)c2c2c1OCCO2` [Example 139, N-(2-chloro-4-((5-(2-hydroxy-2-methylpropoxy)-2,3-dihydro-[1,4]dioxino[2,3-f]quinolin-10-yl)oxy)phenyl)-1-(4-fluorophenyl)-2-oxo-1,2-dihydropyridine-3-carboxamide], the values for the IC50 on TRKA kinase, in the experiment on Ba/F3 LMNA-NTRK1 cells and at VEGFR-2 kinase were below 50 nM, below 50 nM and 50 to 500 nM, respectively.
With `COc1ccn(-c2ccc(F)cc2)c(=O)c1C(=O)Nc1ccc(Oc2ccnc3cc(OCC(C)(C)O)c4c(c23)OCCO4)cc1Cl` [Example 140, N-(2-chloro-4-((5-(2-hydroxy-2-methylpropoxy)-2,3-dihydro-[1,4]dioxino[2,3-f]quinolin-10-yl)oxy)phenyl)-1-(4-fluorophenyl)-4-methoxy-2-oxo-1,2-dihydropyridine-3-carboxamide], the IC50 on TRKA kinase was below 50 nM; in the experiment on Ba/F3 LMNA-NTRK1 cells, below 50 nM; at VEGFR-2 kinase, 500 to 5000 nM.
